Data from US11026910B2, “α- and γ-truxillic acid derivatives and pharmaceutical compositions thereof” (The Research Foundation for The State University of New York, priority 2012, dated 2021).
Entries after “also recorded” stand apart in the source; their conditions may differ.

Key:
[1] = tested on: dorsal raphe (DR) serotonin (5-HT) neurons; test: Patch-clamp electrophysiology in brain slices, glutamate-mediated EPSCs; format: cell-based
Description: Whole-cell-voltage clamp recordings of dorsal raphe (DR) serotonin (5-HT) neurons were performed as previously described. Briefly, DR neurons were visualized using an upright microscope (BX 51 WI, Olympus, Tokyo, Japan) equipped with a differential interference contrast and infrared imaging system. Somatic recordings from DR neurons were obtained with path electrodes ([…]) back-filled with potassium gluconate based internal solution of the following composition: 120 mM potassium gluconate, 10 mM KCl, 10 mM Na2-phosphocreatine, 10 mM HEPES, 1 mM MgCl2, 1 mM EGTA, 2 mM Na2-ATP, 0.25 mM Na-GTP, pH 7.3 (Adjusted with KOH; Osmolarity, 280 to 290 mOsmol/l). All the recordings were conducted in the presence of GABAA receptor antagonist picrotoxin (100 μM). Excitatory postsynaptic currents (EPSCs) were evoked with a single square stimulus (intensity, 1 to 10 V, duration, 100 to 200 μs) delivered via a glass stimulating electrode. […]
The amplitude of EPSCs was determined by measuring the average current during a 2-ms period at the peak of each EPSC and subtracted from the baseline current determined during a 5-ms time window before the stimulus. All EPSC amplitudes were normalized to the mean baseline amplitude recorded for at least 10 min before drug application. […]

PPARα = target: T1, PPARα (Homo sapiens, UniProt Q07869); test: PPARα transactivation in HeLa cells; format: cell-based
T1 construct: expressed in transfected cells; host or cells: HeLa
T1 sequence (Q07869 1-468): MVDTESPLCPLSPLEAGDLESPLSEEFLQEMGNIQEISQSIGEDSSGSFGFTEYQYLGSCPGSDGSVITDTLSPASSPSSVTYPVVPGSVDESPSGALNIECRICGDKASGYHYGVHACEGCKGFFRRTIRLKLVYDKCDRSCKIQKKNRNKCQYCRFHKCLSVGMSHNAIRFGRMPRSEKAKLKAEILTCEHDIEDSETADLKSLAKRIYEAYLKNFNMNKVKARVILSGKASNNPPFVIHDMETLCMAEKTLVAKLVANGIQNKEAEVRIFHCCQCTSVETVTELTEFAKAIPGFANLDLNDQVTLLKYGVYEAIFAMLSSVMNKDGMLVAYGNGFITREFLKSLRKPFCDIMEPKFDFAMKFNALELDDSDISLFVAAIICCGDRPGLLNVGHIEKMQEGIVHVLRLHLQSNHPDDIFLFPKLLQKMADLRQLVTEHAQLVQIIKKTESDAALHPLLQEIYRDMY
Description: (§1) PPARα and PPARγ transactivation assays were performed in HeLa cells exactly as described (Kaczocha, M. et al. 2012).

PPARγ = target: T2, PPARγ (Homo sapiens, UniProt P37231); test: PPARγ transactivation in HeLa cells; format: cell-based
T2 construct: expressed in transfected cells; host or cells: HeLa
T2 sequence (P37231 1-505): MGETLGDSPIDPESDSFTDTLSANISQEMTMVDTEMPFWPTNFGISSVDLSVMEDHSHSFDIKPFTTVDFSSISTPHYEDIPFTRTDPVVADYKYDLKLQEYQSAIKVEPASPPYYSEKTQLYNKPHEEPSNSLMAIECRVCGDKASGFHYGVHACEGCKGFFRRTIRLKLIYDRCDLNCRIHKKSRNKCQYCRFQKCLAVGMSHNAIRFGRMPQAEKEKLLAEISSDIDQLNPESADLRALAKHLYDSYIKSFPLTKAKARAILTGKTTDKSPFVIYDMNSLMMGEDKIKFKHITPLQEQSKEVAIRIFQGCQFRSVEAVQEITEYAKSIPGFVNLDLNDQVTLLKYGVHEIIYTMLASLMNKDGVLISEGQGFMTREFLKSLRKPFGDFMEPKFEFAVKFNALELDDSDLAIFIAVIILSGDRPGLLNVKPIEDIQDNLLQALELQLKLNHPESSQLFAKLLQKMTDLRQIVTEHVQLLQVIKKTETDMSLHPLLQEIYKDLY
Description: as §1

male C57Bl6 mice = test: Formalin test; format: in vivo
Description: (§2) We used male C57Bl6 mice (22-30 g, Taconic Farms) for all experiments. The animals were group housed at room temperature and kept on a 12:12 hour light:dark cycle with ad libitum access to water and food. The animals were habituated to the experimental room for one week before testing. All experiments were approved by the Stony Brook University Institutional Animal Care and Use Committee. The experimenter was blinded to the treatment conditions of each animal.
Mice were habituated to the observation chamber (Plexiglas box, 25 cm×25 cm×25 cm) for 30 min prior to formalin injection. The mice subsequently received an injection of formalin (2.5% in saline, 20 μl) into the plantar surface of the right hind paw using a 27 gauge needle. The animals were immediately placed back into the observation, chamber and nocifensive behavior (time spent licking or biting the paw) was recorded for 60 min. The formalin test consists of two phases with the first phase (0-5 min) reflecting nociceptor activation and the second phase (15-45 min) reflecting an inflammatory pain response.
Behavioral data are presented as means±S.E.M. for the vehicle and inhibitor-treated groups, each consisting of at least 6 animals. Statistical significance between vehicle and inhibitor groups was determined using unpaired t-tests or one-way ANOVA followed by Dunnett's post hoc analysis. In all cases, differences of p<0.05 were considered significant.

mice = test: Acetic acid-induced writhing; format: in vivo
Description: as §2

[2] = tested on: brain levels of the endocannabinoid anandamide (AEA); test: Brain levels of the endocannabinoid anandamide (AEA); format: in vivo, mice; details: FIG. 17
Description: as §2

[3] = 6 hrs incubation, luciferase reporter

`O=C(O)[C@H]1[C@@H](c2ccccc2)[C@@H](C(=O)Oc2cccc3ccccc23)[C@@H]1c1ccccc1` (single isomer, unassigned) [Compound 26, α-2,4-diphenyl-cyclobutane-1,3-dicarboxylic Acid mono-(1-naphthol) Ester] was tested. Which “amplitude of EPSCs” value ([1]; bath application 10 μM, n=8) did it give?
The value was 107±6.7 % of baseline.

What about the “agonist properties at CB1 receptors” value ([1]; concluded from EPSC amplitude, 10 μM) of the same molecule?
The value was “is not a CB1 receptor agonist”.

And the “activation of PPARα” value (PPARα; [3])?
Its value is about 2 fold.

And the “agonism at PPARα” value (PPARα; compared with GW7647)?
Its value is “weak agonist”.

What about the “activation of PPARγ” value (PPARγ; [3]) of the same molecule?
Its value is about 3 fold.

What about the “agonism at PPARγ” value (PPARγ; compared with rosiglitazone) of the same molecule?
The value was “weak agonist”.

What about the “formalin test first phase (0-5 min) nocifensive behavior” value (male C57Bl6 mice; 20 mg/kg, i.p. (FIG. 10A)) of the same molecule?
Its value is “significantly reduced; also recorded: reduces”.

What about the “formalin test second phase (15-45 min) nocifensive behavior” value (male C57Bl6 mice; 20 mg/kg, i.p. (FIG. 10A)) of the same molecule?
The value was “only during the first phase”.

And the “first phase of formalin-induced nociception” value (male C57Bl6 mice; FIG. 16B)?
Its value is “reduce”.

What about the “second phase of formalin-induced nociception” value (male C57Bl6 mice; FIG. 16B) of the same molecule?
Its value is “reduce”.

And the “antinociceptive effects with SR141716 (3 mg/kg) and GW6471 (4 mg/kg)” value (mice; FIG. 16E)?
Its value is “reversed”.

What about the acetic acid-induced writhing (mice; FIGS. 16C-D) of the same molecule?
The acetic acid-induced writhing was “reduces”.

And the “brain levels of anandamide (AEA)” value [2]?
The value was “elevates”.
